pIC50: −log10 of the molar value.
Test system: NCI-H719 tumor spheroids, viability
Experiment: Anticancer human tumor NCI-H719 cell line growth inhibition;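 also: spheroids exposed to compounds for seven days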;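 as to viability, T/C: percent viability relative to DMSO vehicle control as 100%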
Settings: spheroids with HUVEC and MSC; for pIC50: curve of first compound; for viability, T/C: stronger effect = lower value
How it was run: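 Complex tumor spheroids combined malignant cells with endothelial cells and mesenchymal stem cells. DNA-damaging drugs and DNA repair inhibitors were tested alone and in combination, at half-log dilutions down from clinical Cmax (top 10 microM if Cmax unknown), 0.25% DMSO final.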

[1] = second compound 1 µM, first compound 0.00949 µM
[2] = second compound 1 µM, first compound 0.03 µM
[3] = second compound 1 µM, first compound 0.0949 µM
[4] = second compound 1 µM, first compound 0.3 µM
[5] = second compound 1 µM, first compound 0.949 µM
[6] = second compound 1 µM, first compound 3 µM
[7] = second compound 3.16 µM, first compound 0.00949 µM
[8] = second compound 3.16 µM, first compound 0.03 µM
[9] = second compound 3.16 µM, first compound 0.0949 µM
[10] = second compound 3.16 µM, first compound 0.3 µM
[11] = second compound 3.16 µM, first compound 0.949 µM
[12] = second compound 3.16 µM, first compound 3 µM
[13] = second compound 10 µM, first compound 0.00949 µM
[14] = second compound 10 µM, first compound 0.03 µM
[15] = second compound 10 µM, first compound 0.0949 µM
[16] = second compound 10 µM, first compound 0.3 µM
[17] = second compound 10 µM, first compound 0.949 µM
[18] = second compound 10 µM, first compound 3 µM
[19] = second compound 31.6 µM, first compound 0.00949 µM
[20] = second compound 31.6 µM, first compound 0.03 µM
[21] = second compound 31.6 µM, first compound 0.0949 µM
[22] = second compound 31.6 µM, first compound 0.3 µM
[23] = second compound 31.6 µM, first compound 0.949 µM
[24] = second compound 31.6 µM, first compound 3 µM
[25] = second compound 100 µM, first compound 0.00949 µM
[26] = second compound 100 µM, first compound 0.03 µM
[27] = second compound 100 µM, first compound 0.0949 µM
[28] = second compound 100 µM, first compound 0.3 µM
[29] = second compound 100 µM, first compound 0.949 µM
[30] = second compound 100 µM, first compound 3 µM

| Compound | pIC50 (second compound 1 µM) | pIC50 (second compound 3.16 µM) | pIC50 (second compound 10 µM) | pIC50 (second compound 31.6 µM) | pIC50 (second compound 100 µM) | viability, T/C [1] | viability, T/C [2] | viability, T/C [3] | viability, T/C [4] | viability, T/C [5] | viability, T/C [6] | viability, T/C [7] | viability, T/C [8] | viability, T/C [9] | viability, T/C [10] | viability, T/C [11] | viability, T/C [12] | viability, T/C [13] | viability, T/C [14] | viability, T/C [15] | further results |
| --- | --- | --- | --- | --- | --- | --- | --- | --- | --- | --- | --- | --- | --- | --- | --- | --- | --- | --- | --- | --- | --- |
| CNCc1ccc(-c2cc(-c3nc(-c4ccc(S(=O)(=O)C(C)C)cc4)cnc3N)on2)cc1 + Cn1nnc2c(C(N)=O)ncn2c1=O | 6.88 | 7.02 | 6.79 | 7.03 | 7.47 | 88.2% | 95% | 43.5% | 39% | 8.27% | 0.15% | 97.6% | 94.2% | 46.7% | 18.9% | 9.22% | 0.14% | 101% | 93.7% | 80.2% | viability, T/C [16]: 15%; viability, T/C [17]: 8.28%; viability, T/C [18]: 18.1%; viability, T/C [19]: 105%; viability, T/C [20]: 106%; viability, T/C [21]: 49.8%; viability, T/C [22]: 15.7%; viability, T/C [23]: 8.28%; viability, T/C [24]: 37.8%; viability, T/C [25]: 80%; viability, T/C [26]: 52.8%; viability, T/C [27]: 24.4%; viability, T/C [28]: 9.66%; viability, T/C [29]: 39.1%; viability, T/C [30]: 0.23% |
| Cc1sc2c(c1C)C(c1ccc(Cl)cc1)=NC(CC(=O)Nc1ccc(O)cc1)c1nnc(C)n1-2 (stereo not given) + Cn1nnc2c(C(N)=O)ncn2c1=O | 7.10 | 6.86 | 6.70 | 7.15 | 7.27 | 90.8% | 80.5% | 41.9% | 20.6% | 4.49% | 3.76% | 95.2% | 98.7% | 65.9% | 15.6% | 4.84% | 3.28% | 96.5% | 89% | 73.1% | viability, T/C [16]: 39.8%; viability, T/C [17]: 4.17%; viability, T/C [18]: 2.94%; viability, T/C [19]: 107%; viability, T/C [20]: 104%; viability, T/C [21]: 31.9%; viability, T/C [22]: 14.3%; viability, T/C [23]: 3.77%; viability, T/C [24]: 2.95%; viability, T/C [25]: 88%; viability, T/C [26]: 65%; viability, T/C [27]: 37%; viability, T/C [28]: 6.38%; viability, T/C [29]: 3.72%; viability, T/C [30]: 3% |
| Cn1ncnc1[C@H]1c2n[nH]c(=O)c3cc(F)cc(c23)N[C@@H]1c1ccc(F)cc1 + Cn1nnc2c(C(N)=O)ncn2c1=O | > 8.02 | > 8.02 | > 8.02 | > 8.02 | > 8.02 | 18.9% | 7.46% | 7.66% | 7.07% | 6.65% | 7.52% | 14.8% | 7.76% | 7.04% | 7.11% | 7.41% | 8.3% | 7.72% | 6.58% | 7.6% | viability, T/C [16]: 6.29%; viability, T/C [17]: 30.5%; viability, T/C [18]: 8.25%; viability, T/C [19]: 6.42%; viability, T/C [20]: 7.02%; viability, T/C [21]: 7.1%; viability, T/C [22]: 7.06%; viability, T/C [23]: 7.26%; viability, T/C [24]: 9.15%; viability, T/C [25]: 7.03%; viability, T/C [26]: 6.67%; viability, T/C [27]: 6.67%; viability, T/C [28]: 7.34%; viability, T/C [29]: 7.7%; viability, T/C [30]: 9.27% |

Source: PubChem BioAssay AID1845212 (Molecular Pharmacology Branch, DTP, NCI, 2023)
